This is an account of results in patent US11136297B2, “Compositions and methods for treating cancer” (THE REGENTS OF THE UNIVERSITY OF CALIFORNIA, priority 2016, dated 2021).

Each structure is given as a SMILES string. Entries after “also recorded” stand apart in the source; their conditions may differ.

The target of one test is T1, 1-169 K-Ras(M72C) GDP (Homo sapiens, UniProt P01116, M72C).
T1 construct: Untagged recombinant 1-169 K-Ras(M72C) GDP; His6 (cleaved yes); made in house; host or cells: Escherichia coli BL21(DE3)
T1 sequence (P01116 1-169 isoform P01116-2 M72C): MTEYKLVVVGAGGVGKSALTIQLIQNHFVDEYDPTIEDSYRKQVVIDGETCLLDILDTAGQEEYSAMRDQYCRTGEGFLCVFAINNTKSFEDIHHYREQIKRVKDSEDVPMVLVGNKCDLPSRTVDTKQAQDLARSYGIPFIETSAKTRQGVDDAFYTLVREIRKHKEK
Briefly: Disulfide tethering screen, percent modification by intact protein mass spectrometry. Format: binding. The conditions noted are these: screening βME 1 mM. The text has this: In some embodiments, a library of disulfide compounds may be screened against a cysteine-containing protein in the presence of a reducing agent such as β-mercaptoethanol (BME). Compounds with complementary binding contacts with a region of the protein near the cysteine may shift the disulfide exchange equilibrium away from BME modification of the cysteine thiol and enhance the ratio of the hit ligand bound to the cysteine. The resulting mass change of the protein can be readily detected by mass spectrometry, and the percentage of modified protein can be used as a measure of potency. Compounds which exchange with the cysteine without conferring affinity should exchange with reducing agent equally well and will not shift the equilibrium toward protein modification. The potency of various compounds at a given concentration of BME may be compared by calculating the dose-response 50 (DR50), which is the concentration of compound at which the protein becomes 50% modified.
A tethering library of 960 disulfides were screened against 1-169 K-Ras(M72C) GDP using intact protein mass spectrometry to monitor percent modification (See Methods, and FIG. 37). […] To better prioritize tethering fragments, a βME50 value (the concentration of βME needed to reduce disulfide fragment modification to 50%) was determined for each compound. […]

A further test deals with H-Ras(M72C) GDP (Homo sapiens, UniProt P01112, M72C). Briefly: Intrinsic nucleotide affinity by EDTA catalyzed nucleotide exchange (Raf-1-RBD pull down readout). Type of test: biochemical. Set-up: and H-Ras (residues 1-166) were transformed into Escherichia coli; His6; made in house; host or cells: Escherichia coli BL21(DE3). The method, then: Intrinsic Nucleotide Affinity by EDTA Catalyzed Nucleotide Exchange. For each EDTA catalyzed reaction, the total reaction volume was 500 μL. Each reaction had the following final composition: 100 nM Ras GDP (1 μg, 5 μL of 0.2 mg/mL Ras stock), 75 nM BSA (2.5 μg, 5 μL of 0.5 mg/mL BSA stock), 100 μM total nucleotide concentration (5 μL of various ratios of GDP:GppNHp from 10 mM stock solutions), 10 mM of EDTA (10 μL of 0.5M EDTA pH 8.0), 64 mM of MgCl2 (16 μL of 2M MgCl2 stock), 3 μM of His6-MBP-Raf-1-RBDwitt (80 μg, 18.3 μL of 4.38 mg/mL stock of His6-MBP-Raf-1-RBDwitt), and Raf Pull Down Buffer to volume (25 mM Tris (pH 7.2), 150 mM NaCl, 5 mM MgCl2, 1% NP-40, 5% glycerol, 20 mM imidazole). Prior to initiating the EDTA catalyzed nucleotide exchange, the Ras, BSA, nucleotide, and Raf Pull Down Buffer were mixed by pipette on ice. To each tube, the EDTA was added, sample was inverted X 3, and then placed in a pre-warmed tube rack at 30° C. The exchange was allowed to occur at 30° C. for 15 minutes, inverting each tube X 3 every 5 minutes. Once the 15 minutes of exchange was complete, MgCl2 was added to each tube and inverted X 3 and placed on ice for 15 minutes. During the quenching on ice, add 100 μL Ni-NTA slurry (Qiagen) to a cellulose acetate spin cup and spin at 5,000 rpm on a tabletop centrifuge for 30 seconds. Wash the beads with 400 μL of Raf Pull Down Buffer to wash away bead storage buffer. Before adding the beads and His6-tagged Raf-1-RBDwitt, take a 10 μL sample as a loading control and quench it with 5 μL 5×SDS loading buffer. To each spin cup filled with washed Ni-NTA beads, add the quenched EDTA catalyzed exchange reaction and the His6-tagged Raf-1-RBDwitt. Seal the spin cup with parafilm and let rotate at 4° C. for 1 h. After mixing, centrifuge the sample for 30 seconds at 5,000 rpm. Toss flow through. Wash the beads×5 with 400 μL of Raf Pull Down Buffer. After last wash, centrifuge one last time to remove any excess buffer stuck to the beads. To each cup, add 50 μL of 5×SDS loading buffer and mix by vortexing. Let the buffer sit on the beads for 5 minutes and then elute into a fresh tube by centrifuging at 5000 rpm for 1.5 minutes. Load 10 μL of each loading control sample and 25 μL of each eluted pull down onto a SDS-PAGE gel and transfer to a nitrocellulose blot for Western Blot analysis. Block with 5% BSA TBS buffer and then blot with pan Ras primary antibody at a 1:500 dilution in 5% BSA in TBST (Cell Signaling #3965). Blots were read out using LICOR compatible secondary antibodies and quantified. Signal from each GDP-only (i.e. 0% GppNHp) exchange was subtracted as background from the 20%, 50%, and 66% GppNHp pull-down signals for each protein construct. The signal for the GppNHp only lane (i.e. 100% GppNHp) was normalized to 1 and all other signals were made relative to this band within each protein construct tested.

Test [1] has as its target T2, H-Ras(M72C) activation by SOScat (Homo sapiens, UniProt P01112, M72C).
T2 construct: and H-Ras (residues 1-166) were transformed into Escherichia coli; His6; made in house; host or cells: Escherichia coli BL21(DE3)
As to the kind of experiment: SOScat catalyzed nucleotide exchange read out by Raf-1-RBD pull-down. Format: biochemical. The method, then:
FIGS. 29A-29D. […] FIG. 29D: Reconstruction of Ras cycle is achieved by inducing nucleotide exchange of 100 nM Ras by various concentrations of SOS^cat for either 1 or 2 hours and subsequent pull-down by Raf-1-RBD.
FIGS. 33A-33D. […] In FIG. 33B) through FIG. 33D), normalized pull-down signals are shown below the blot. S. E. M for each signal, number of replicates, and […] for each comparative Standard T-Test are summarized herein (see Tables 33B, 33C, and 33D). […] Comparative statistics were done for normalized pull-down signals between protein constructs of the same condition (i.e. in FIG. 33B) and FIG. 33C), column 1 for unlabeled and 1 for labeled protein, 2 for unlabeled and 2 for labeled, and so on were statistically compared, and in FIG. 33D) only the +SOS^cat and +GppNHp lanes were compared across protein constructs). FIG. 33A) Cartoon representation of pull down protocol. […] Reported values are quantified pull-down signals normalized to input. FIG. 33B) Cartoon representation of pull down protocol. […] FIG. 33C) Cartoon representation of pull down protocol. […] FIG. 33D) Cartoon representation of pull down protocol. Ras activation is achieved by catalyzing nucleotide exchange by SOS^cat and indirectly reading out activated Ras by subsequent pull down by Raf-1-RBD.

Regarding `COc1ccc(-n2ncc(C(=O)NCCCSSCCN(C)C)c2C(F)(F)F)cc1` [Compound 2C07, N-(3-((2-(dimethylamino)ethyl)disulfanyl)propyl)-1-(4-methoxyphenyl)-5-(trifluoromethyl)-1H-pyrazole-4-carboxamide], the percent modification at 1-169 K-Ras(M72C) GDP was found to be 69.7%. In addition, the “Normalized Average (Nucleotide Exchange PD Assay)” value at H-Ras(M72C) GDP (H-Ras(M72C) 2C07, GppNHp only, normalized to 1) is 1.00; on H-Ras(M72C) GDP (H-Ras(M72C) 2C07, GTP:GDP 0, background subtracted), 0.00; on H-Ras(M72C) GDP (H-Ras(M72C) 2C07, GTP:GDP 0.2, relative to GppNHp-only signal), 0.03; on H-Ras(M72C) GDP (H-Ras(M72C) 2C07, GTP:GDP 0.5, relative to GppNHp-only signal), 0.12; at H-Ras(M72C) GDP (H-Ras(M72C) 2C07, GTP:GDP 0.67, relative to GppNHp-only signal) it was 0.13. The “nucleotide preference of 2C07 bound Ras” value on H-Ras(M72C) GDP (varying ratios of GDP:GppNHp, EDTA catalyzed exchange) was “nucleotide preference for GDP over GppNHp”. For the same compound, the “SOScat catalyzed nucleotide exchange” value in test [1] is “inhibits activation of H-Ras by SOS^cat; also recorded: inhibits SOS^cat catalyzed nucleotide exchange”.
